Reference: US9862749B2, “Analogue peptide CMA3 derived from CM-MA peptide and use thereof” (Industry-Academic Cooperation Foundation, Chosun University, priority 2014, dated 2018)
In brackets after ≈: the same amount, converted by molar mass. Peptide text beside a SMILES is read from it.

How the values were obtained:
Assay type in all cases: cell-based
Escherichia coli = settings: 12 h
Description: (§1) To compare the antibacterial activities among those peptides prepared by the method of Example 1 of the invention, the inventors measured MIC (minimal inhibitory concentration) of the peptide which is the minimum concentration for staying without being broken.
(§2) Particularly, the strains listed in Table 2 were purchased and cultured in each medium composed as instructed until the mid-log phase. The cells were diluted at the density of 5×10^5 cells/100 μl, which were then inoculated in a micro-titrate plate (Nunc, USA). Then, the CMA1, CMA2, CMA3, CMA4, CMA5, or CMA6 peptide synthesized in Example 1 was ½ fold diluted in each 96 well plate, and then added to the plate, followed by culture at 37° C. for 12 hours. OD620 was measured with a micro-titrate plate reader (Merck Elisa reader, Germany) to determine MIC for each strain. As for the control, the mother peptide CM-MA was treated by the same manner as described above and MIC was also determined.

Listeria monocytogenes = settings: 12 h
Description: as §1, §2

Pseudomonas aeruginosa = settings: 12 h
Description: as §1, §2

Salmonella typhimurium = settings: 12 h
Description: as §1, §2

Staphylococcus aureus = settings: 12 h
Description: as §1, §2

[1] = system: Staphylococcus epidermidis; settings: 12 h
Description: as §1, §2

in vitro = settings: human, HaCaT cells (human keratinocyte cell line)
Description: To investigate the cytotoxicity of each peptide prepared by the method of Example 1 to human keratinocyte cell line (HaCaT cell line, Dr. N E. Fusenig, Heidelberg, Germany) was measured.
Particularly, the HaCaT cell line cultured in DMEM supplemented with 10% FBS (Fetal Bovine Serum) was distributed in a 96-well plate at the density of 3×10^3 cells/well, followed by culture for 24 hours. The CM-MA, CMA1, CMA2, CMA3, CMA4, CMA5, or CMA6 peptide prepared in Example 1 was treated to each well at the concentration of 12.5, 25.0, 50.0, 100.0, or 200.0 μM/well, followed by reaction in a 5% CO2 incubator for 24 hours. Upon completion of the culture, 20 ul of the reaction solution containing 5 mg/ml MTT (Thiazolyl Blue Tetrazolium Bromide) dissolved in PBS (phosphate buffered saline) was added to each well, followed by reaction for 4 hours. Then, the supernatant was eliminated.

Compound | Minimal inhibitory concentration (Escherichia coli) [µM] | Minimal inhibitory concentration (Listeria monocytogenes) [µM] | Minimal inhibitory concentration (Pseudomonas aeruginosa) [µM] | Minimal inhibitory concentration (Salmonella typhimurium) [µM] | Minimal inhibitory concentration (Staphylococcus aureus) [µM] | Minimal inhibitory concentration [1] [µM] | viability at 24 h, 200 µM (in vitro) [%]
CC[C@H](C)[C@H](NC(=O)CNC(=O)[C@@H](NC(=O)[C@H](CCCCN)NC(=O)[C@H](CCCCN)NC(=O)[C@H](Cc1ccccc1)NC(=O)[C@H](CC(C)C)NC(=O)[C@H](CCCCN)NC(=O)[C@H](Cc1c[nH]c2ccccc12)NC(=O)[C@@H](N)CCCCN)[C@@H](C)CC)C(=O)NCC(=O)N[C@@H](CCCCN)C(=O)N[C@@H](Cc1ccccc1)C(=O)N[C@@H](CC(C)C)C(=O)N[C@@H](Cc1c[nH]cn1)C(=O)N[C@@H](CO)C(=O)N[C@@H](C)C(=O)N[C@@H](CCCCN)C(=O)N[C@@H](CCCCN)C(=O)N[C@@H](Cc1ccccc1)C(N)=O [CA-MA, reference compound] (H-KWKLFKKIGIGKFLHSAKKF-NH2) | 2 (≈ 4.81 µg/mL) | 0.5 (≈ 1.2 µg/mL) | 1 (≈ 2.4 µg/mL) | 1 (≈ 2.4 µg/mL) | 8 (≈ 19.2 µg/mL) | 8 (≈ 19.2 µg/mL) | 1.4
CC[C@H](C)[C@H](NC(=O)CNC(=O)[C@@H](NC(=O)[C@H](CCCCN)NC(=O)[C@H](CCCCN)NC(=O)[C@H](Cc1ccccc1)NC(=O)[C@H](CC(C)C)NC(=O)[C@H](CCCCN)NC(=O)[C@H](Cc1c[nH]c2ccccc12)NC(=O)[C@@H](N)CCCCN)[C@@H](C)CC)C(=O)NCC(=O)N[C@@H](CCCCN)C(=O)N[C@@H](Cc1c[nH]cn1)C(=O)N[C@@H](Cc1ccccc1)C(=O)N[C@@H](CC(C)C)C(=O)N[C@@H](CO)C(=O)N[C@@H](C)C(=O)N[C@@H](CCCCN)C(=O)N[C@@H](CCCCN)C(=O)N[C@@H](Cc1ccccc1)C(N)=O [CMA1] (H-KWKLFKKIGIGKHFLSAKKF-NH2) | 8 (≈ 19.2 µg/mL) | 4 (≈ 9.62 µg/mL) | 8 (≈ 19.2 µg/mL) | 1 (≈ 2.4 µg/mL) | 16 (≈ 38.5 µg/mL) | 32 (≈ 76.9 µg/mL) | 51.1
CC[C@H](C)[C@H](NC(=O)CNC(=O)[C@@H](NC(=O)[C@H](CCCCN)NC(=O)[C@H](CCCCN)NC(=O)[C@H](Cc1ccccc1)NC(=O)[C@H](CC(C)C)NC(=O)[C@H](CCCCN)NC(=O)[C@H](Cc1c[nH]c2ccccc12)NC(=O)[C@@H](N)CCCCN)[C@@H](C)CC)C(=O)NCC(=O)N[C@@H](CCCCN)C(=O)N[C@@H](Cc1ccccc1)C(=O)N[C@@H](CC(C)C)C(=O)N[C@@H](CO)C(=O)N[C@@H](C)C(=O)N[C@@H](Cc1c[nH]cn1)C(=O)N[C@@H](CCCCN)C(=O)N[C@@H](CCCCN)C(=O)N[C@@H](Cc1ccccc1)C(N)=O [CMA2] (H-KWKLFKKIGIGKFLSAHKKF-NH2) | 2 (≈ 4.81 µg/mL) | 1 (≈ 2.4 µg/mL) | 4 (≈ 9.62 µg/mL) | 1 (≈ 2.4 µg/mL) | 32 (≈ 76.9 µg/mL) | 16 (≈ 38.5 µg/mL) | –
CC[C@H](C)[C@H](NC(=O)CNC(=O)[C@@H](NC(=O)[C@H](Cc1c[nH]cn1)NC(=O)[C@H](CCCCN)NC(=O)[C@H](CCCCN)NC(=O)[C@H](CC(C)C)NC(=O)[C@H](CCCCN)NC(=O)[C@H](Cc1c[nH]c2ccccc12)NC(=O)[C@@H](N)CCCCN)[C@@H](C)CC)C(=O)NCC(=O)N[C@@H](CCCCN)C(=O)N[C@@H](Cc1c[nH]cn1)C(=O)N[C@@H](Cc1ccccc1)C(=O)N[C@@H](CC(C)C)C(=O)N[C@@H](CO)C(=O)N[C@@H](C)C(=O)N[C@@H](CCCCN)C(=O)N[C@@H](CCCCN)C(=O)N[C@@H](Cc1ccccc1)C(N)=O [CMA3] (H-KWKLKKHIGIGKHFLSAKKF-NH2; N-terminus assumed) | 4 (≈ 9.58 µg/mL) | 2 (≈ 4.79 µg/mL) | 8 (≈ 19.2 µg/mL) | 1 (≈ 2.39 µg/mL) | 32 (≈ 76.6 µg/mL) | 64 (≈ 153 µg/mL) | 92.4
CC[C@H](C)[C@H](NC(=O)CNC(=O)[C@@H](NC(=O)[C@H](CCCCN)NC(=O)[C@H](CCCCN)NC(=O)[C@H](CC(C)C)NC(=O)[C@H](Cc1c[nH]cn1)NC(=O)[C@H](CCCCN)NC(=O)[C@H](Cc1c[nH]c2ccccc12)NC(=O)[C@@H](N)CCCCN)[C@@H](C)CC)C(=O)NCC(=O)N[C@@H](CCCCN)C(=O)N[C@@H](Cc1ccccc1)C(=O)N[C@@H](CC(C)C)C(=O)N[C@@H](CO)C(=O)N[C@@H](C)C(=O)N[C@@H](Cc1c[nH]cn1)C(=O)N[C@@H](CCCCN)C(=O)N[C@@H](CCCCN)C(=O)N[C@@H](Cc1ccccc1)C(N)=O [CMA4] (H-KWKHLKKIGIGKFLSAHKKF-NH2) | 4 (≈ 9.58 µg/mL) | 2 (≈ 4.79 µg/mL) | 16 (≈ 38.3 µg/mL) | 1 (≈ 2.39 µg/mL) | 32 (≈ 76.6 µg/mL) | 32 (≈ 76.6 µg/mL) | 64.5
CC[C@H](C)[C@H](NC(=O)CNC(=O)[C@@H](NC(=O)[C@H](CCCCN)NC(=O)[C@H](CCCCN)NC(=O)[C@H](CC(C)C)NC(=O)[C@H](Cc1c[nH]cn1)NC(=O)[C@H](CCCCN)NC(=O)[C@H](Cc1c[nH]c2ccccc12)NC(=O)[C@@H](N)CCCCN)[C@@H](C)CC)C(=O)NCC(=O)N[C@@H](CCCCN)C(=O)N[C@@H](Cc1c[nH]cn1)C(=O)N[C@@H](Cc1ccccc1)C(=O)N[C@@H](CC(C)C)C(=O)N[C@@H](CO)C(=O)N[C@@H](C)C(=O)N[C@@H](CCCCN)C(=O)N[C@@H](CCCCN)C(=O)N[C@@H](Cc1ccccc1)C(N)=O [CMA5] (H-KWKHLKKIGIGKHFLSAKKF-NH2) | 8 (≈ 19.2 µg/mL) | 2 (≈ 4.79 µg/mL) | 16 (≈ 38.3 µg/mL) | 1 (≈ 2.39 µg/mL) | 32 (≈ 76.6 µg/mL) | 64 (≈ 153 µg/mL) | 78.9
CC[C@H](C)[C@H](NC(=O)CNC(=O)[C@@H](NC(=O)[C@H](CCCCN)NC(=O)[C@H](CCCCN)NC(=O)[C@H](Cc1ccccc1)NC(=O)[C@H](CC(C)C)NC(=O)[C@H](CCCCN)NC(=O)[C@H](Cc1c[nH]c2ccccc12)NC(=O)[C@@H](N)CCCCN)[C@@H](C)CC)C(=O)NCC(=O)N[C@@H](CCCCN)C(=O)N[C@@H](Cc1ccccc1)C(=O)N[C@@H](CC(C)C)C(=O)N[C@@H](CCC(N)=O)C(=O)N[C@@H](CO)C(=O)N[C@@H](C)C(=O)N[C@@H](CCCCN)C(=O)N[C@@H](CCCCN)C(=O)N[C@@H](Cc1ccccc1)C(N)=O [CMA6] (H-KWKLFKKIGIGKFLQSAKKF-NH2; N-terminus assumed) | 4 (≈ 9.58 µg/mL) | 1 (≈ 2.4 µg/mL) | 4 (≈ 9.58 µg/mL) | 1 (≈ 2.4 µg/mL) | 16 (≈ 38.3 µg/mL) | 8 (≈ 19.2 µg/mL) | –
